Several values for one entry are separate records, joined by “and”; a condition that tells them apart may be missing. Identical values can stand only once. Like-named read-outs stand apart in the source and are kept apart here.
Tests used:
CYP2C8 = target: T1, CYP2C8 (Homo sapiens, UniProt P10632); experiment: Inhibition of recombinant CYP2C8 (probe paclitaxel); assay type: in vitro ADME
T1 sequence (P10632 1-490): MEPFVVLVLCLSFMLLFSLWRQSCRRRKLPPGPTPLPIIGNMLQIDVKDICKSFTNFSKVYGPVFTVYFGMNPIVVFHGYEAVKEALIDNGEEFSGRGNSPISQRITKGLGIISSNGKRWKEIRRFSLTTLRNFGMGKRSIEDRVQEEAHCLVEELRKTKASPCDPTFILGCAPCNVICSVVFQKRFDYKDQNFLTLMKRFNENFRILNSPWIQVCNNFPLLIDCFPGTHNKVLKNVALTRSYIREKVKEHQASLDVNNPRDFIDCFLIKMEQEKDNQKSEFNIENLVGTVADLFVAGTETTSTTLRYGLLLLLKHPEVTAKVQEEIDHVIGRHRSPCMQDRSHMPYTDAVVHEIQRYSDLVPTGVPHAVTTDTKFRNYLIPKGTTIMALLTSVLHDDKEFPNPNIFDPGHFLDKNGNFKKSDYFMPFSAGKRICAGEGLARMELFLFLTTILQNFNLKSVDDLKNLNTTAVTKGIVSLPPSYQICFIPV
Description: (§1) In this study, phenacetin (100 μM), coumarin (100 μM), bupropion (100 μM), paclitaxel (60 μM), tolbutamide (200 μM), mephenytoin (100 μM), chlorzoxazone (200 μM) and nifedipine (40 μM) have been used as the probe substrates for CYP1A2, 2A6, 2B6, 2C8, 2C9, 2C19, 2E1 and 3A4, respectively.

[1] = Stability tests of analytes in rat plasma QC samples; assay type: in vitro ADME; details: rat plasma
Description: […] The dilution integrity was investigated by analyzing six replicate samples with each analyte, and each analyte were diluted 10-fold with blank rat matrix. Furthermore, the diluted samples were analyzed using freshly prepared calibration curve to calculate RE and RSD, which should be no more than ± 15% as criterion.

[2] = Urinary (renal) excretion in rats after a 30-min infusion of Kang-Ai injection; assay type: in vivo, Sprague–Dawley rats; details: Kang-Ai injection 6 mL/kg iv
Method in brief: (§2)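 Urine collected in metabolic cages at 0–4, 4–8, 8–12 h and bile at 0–3, 3–6, 6–9, 9–12 h after infusion start, weighed and frozen at −80 °C. Non-compartmental analysis; CLR and CLB as cumulative urinary or biliary amount divided by plasma AUC0-∞, fe-U and fe-B as cumulative amount/dose; mean ± SD (n = 3).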

[3] = Biliary (hepatobiliary) excretion in rats after a 30-min infusion of Kang-Ai injection; assay type: in vivo, Sprague–Dawley rats; details: rat bile 0–12 h; Kang-Ai injection 6 mL/kg iv
Method in brief: as §2

CYP2C9 = CYP2C9 (Homo sapiens, UniProt P11712); experiment: Inhibition of recombinant CYP2C9 (probe tolbutamide); assay type: in vitro ADME
Description: as §1

[4] = Plasma pharmacokinetics in rats after a 30-min intravenous infusion of Kang-Ai injection; assay type: in vivo, Sprague–Dawley rats; details: male, Sprague-Dawley; for clearance: read-out: CLtot, p (converted)
Method in brief: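 Fasted male Sprague–Dawley rats (250 ± 20 g) got a single 30-min tail-vein infusion of Kang-Ai injection at 6 mL/kg. Jugular blood was sampled from 5 min to 12 h for plasma. Parameters came from non-compartmental analysis (trapezoidal AUC), n = 3.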

CYP2C9, sequence (P11712 whole entry): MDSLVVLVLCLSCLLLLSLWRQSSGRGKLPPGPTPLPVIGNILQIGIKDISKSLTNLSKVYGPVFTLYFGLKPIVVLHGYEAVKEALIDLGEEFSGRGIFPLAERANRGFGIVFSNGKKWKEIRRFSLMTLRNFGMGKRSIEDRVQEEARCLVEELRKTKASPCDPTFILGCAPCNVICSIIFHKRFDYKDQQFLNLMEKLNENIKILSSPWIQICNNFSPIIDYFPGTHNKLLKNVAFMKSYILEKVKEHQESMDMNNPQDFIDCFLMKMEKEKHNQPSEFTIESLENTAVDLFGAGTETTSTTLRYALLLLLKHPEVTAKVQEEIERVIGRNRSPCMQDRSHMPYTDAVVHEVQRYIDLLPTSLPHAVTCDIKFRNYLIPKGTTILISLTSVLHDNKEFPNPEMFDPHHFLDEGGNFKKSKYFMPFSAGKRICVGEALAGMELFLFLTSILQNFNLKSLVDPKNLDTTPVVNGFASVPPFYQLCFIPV

## O=C1CCC[C@@H]2[C@H]3CCCN4CCC[C@@H](CN12)[C@@H]34 [Compound A1, Matrine]
CYP2C8
  IC50: > 100 µM
[1]; nominal conc. 20 nM
  At -80 °C for 48 h, Mean±SD: 21.33 ± 1.64 nM
  At -80 °C for 48 h, RE: 10.69%
  Extracted samples at 8 °C for 18 h, Mean±SD: 21.75 ± 0.99 nM
  Extracted samples at 8 °C for 18 h, RE: 13.23%
  Short-term stability at room temperature for 6 h, Mean±SD: 20.84 ± 0.75 nM
  Short-term stability at room temperature for 6 h, RE: 8.05%
  Three freeze-thaw cycles (-80 °C ↔ 23 °C), Mean±SD: 20.11 ± 1.97 nM
  Three freeze-thaw cycles (-80 °C ↔ 23 °C), RE: -9.75%
[1]; nominal conc. 100 nM
  At -80 °C for 48 h, Mean±SD: 106.76 ± 6.22 nM
  At -80 °C for 48 h, RE: 13.15%
  Extracted samples at 8 °C for 18 h, Mean±SD: 95.18 ± 2.64 nM
  Extracted samples at 8 °C for 18 h, RE: -7.17%
  Short-term stability at room temperature for 6 h, Mean±SD: 100.30 ± 2.84 nM
  Short-term stability at room temperature for 6 h, RE: 3.05%
  Three freeze-thaw cycles (-80 °C ↔ 23 °C), Mean±SD: 104.44 ± 12.01 nM
  Three freeze-thaw cycles (-80 °C ↔ 23 °C), RE: 14.16%
[1]; nominal conc. 400 nM
  At -80 °C for 48 h, Mean±SD: 394.46 ± 17.47 nM
  At -80 °C for 48 h, RE: -6.06%
  Extracted samples at 8 °C for 18 h, Mean±SD: 402.13 ± 26.43 nM
  Extracted samples at 8 °C for 18 h, RE: 7.87%
  Short-term stability at room temperature for 6 h, Mean±SD: 420.24 ± 21.99 nM
  Short-term stability at room temperature for 6 h, RE: 11.33%
  Three freeze-thaw cycles (-80 °C ↔ 23 °C), Mean±SD: 415.19 ± 9.89 nM
  Three freeze-thaw cycles (-80 °C ↔ 23 °C), RE: 5.94%
[2]; male, Sprague-Dawley, urine and plasma, rat, read-out: CLR (renal excretory clearance) (converted)
  CL renal: 0.015 mL/min
[2]; rat urine 0–12 h
  fe-U,0–12h (fraction of dose excreted into urine): 57.40% and 57.40 ± 4.88%
[2]; rat urine + bile, 0–12 h
  fraction of dose excreted unchanged via renal plus hepatobiliary excretion (sum of fe-U and fe-B): exceeded 90%
[3]
  fe-B,0–12h (fraction of dose excreted into bile): 36.55% and 36.55 ± 4.24%
CYP2C9
  IC50: > 100 µM
[4]; plasma, rat, 30-min iv infusion of Kang-Ai injection 6 mL/kg, Table 1 unit
  clearance: 0.0263 mL/min
[4]; plasma, rat, 30-min iv infusion of Kang-Ai injection 6 mL/kg, Table 1 unit, read-out: VSS
  Vd: 0.00985 ± 0.00247 L
[4]; plasma, rat, Kang-Ai injection 6 mL/kg iv
  clearance: 1.58 mL/h/kg
[4]; plasma, rat, Kang-Ai injection 6 mL/kg iv, read-out: VSS (Vd)
  Vd: 0.00985 L/kg
[4]; rat, plasma, iv, 6 mL/kg, rat plasma, 30-min iv infusion of Kang-Ai injection 6 mL/kg, unit per footnote # for matrine and oxymatrine, read-out: AUC0–12h
  AUC(0-t): 68.6 ± 9.85 µM·h
[4]; rat plasma, 30-min iv infusion of Kang-Ai injection 6 mL/kg, read-out: t1/2 (converted)
  half-life: 4.33 ± 2.18 h
[4]; rat plasma, 30-min iv infusion of Kang-Ai injection 6 mL/kg, unit per footnote # for matrine and oxymatrine, read-out: Cmax
  Cmax: 15.1 ± 3.58 µM

Reference: publication PMC7339578, “Multiple circulating alkaloids and saponins from intravenous Kang-Ai injection inhibit human cytochrome P450 and UDP-glucuronosyltransferase isozymes: potential drug–drug interactions” (Chinese Medicine, 2020)
